Data: patent publication US20190110476A1, “NOVEL ISOTHIAZOLAMIDES, PROCESSES FOR THEIR PREPARATION AND THEIR USE AS FUNGICIDES” (priority 2014, published 2019)
Marks after values point to notes of the source that are not given here.

test: Measurement of LogP values by HPLC on reversed phase columns (EEC directive 79/831 Annex V.A8); format: physicochemical
In short: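 Following EEC directive 79/831 Annex V.A8, lipophilicity was derived from retention on reversed-phase HPLC columns. Separate values are given per diastereoisomer, and UV lambda-max (200–400 nm) was read at the peak signals.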

Row | LogP | LogP [a] | LogP [b] | SMILES
1 | 3.99[a] |  |  | COc1ccc(CNc2nsc(C(=O)NCc3ccc(Cl)cc3)c2Cl)cc1 [I-242]
2 | 3.39[a] |  |  | Nc1nsc(C(=O)NC2CCCC3CCCCC32)c1Cl (centres unmarked) [I-621]
3 | 3.11[a] |  |  | Nc1cc(C(=O)N(Cc2cc(Cl)cc(C(F)(F)F)c2)C2CC2)sn1 [I-970]
4 | 2.39[a] |  |  | Nc1nsc(C(=O)NCc2ccc(Br)cc2)c1Cl [I-372]
5 | 5.54[a] |  |  | O=C(c1cc(N(Cc2ccccc2)Cc2ccccc2)ns1)N(Cc1c(F)cccc1Cl)C1CC1 [I-911]
6 | 2.28[a] |  |  | CC1OC(C)(C)c2cccc(NC(=O)c3snc(N)c3Cl)c21 (centres unmarked) [I-879]
7 |  | 5.73^[a] |  | CCOC(=O)c1snc(N(Cc2ccccc2)Cc2ccccc2)c1Cl [E-VII-013]
8 |  | 1.55^[a] |  | CC(C)(C)C(=O)Nc1nscc1Cl [Z-A-004]
9 | 2.83[a] |  |  | CCOc1c(N)nsc1C(=O)NCC1CCCCCC1 [I-728]
10 | 4.30[a] |  |  | COc1ccc(CNc2nsc(C(=O)NC3CC(C(F)(F)F)CC(C(F)(F)F)C3)c2Cl)cc1 (centres unmarked) [I-1218]
11 |  | 2.18^[a] |  | O=C(NCC1CCCOC1)c1snc(Cl)c1Cl (centres unmarked) [E-II-005]
12 | 1.90[c] |  |  | Nc1nsc(C(=O)NCC2CCCCC2)c1C#CCO [I-618]
13 | 4.39[a] |  |  | COc1ccc(CNc2nsc(C(=O)N[C@@H]3CCCC[C@H]3C)c2Cl)cc1 (relative stereo) [I-1551]
14 |  | 5.02 | 4.96 | CC1(C)C2CCC1(C)C(NC(=O)c1snc(Cl)c1Cl)C2 (centres unmarked) [E-II-017]
15 | 1.89[a] |  |  | COc1ccc(CNc2nsc(C(=O)NCc3cncc(OC)c3)c2Cl)cc1 [I-1342]
16 | 4.34[a] |  |  | COc1ccc(CNc2nsc(C(=O)NCc3cc(Cl)ccc3Cl)c2Cl)cc1 [I-393]
17 | 3.46[a] |  |  | COc1ccc(CNc2nsc(C(=O)NCc3ccccc3F)c2Cl)cc1 [I-043]
18 | 1.96[a] |  |  | Nc1nsc(C(=O)NCc2c(F)cc(F)cc2F)c1Cl [I-134]
19 | 3.52[a] |  |  | CC(C)(C)OC(=O)Nc1nsc(C(=O)NCC2CCCCC2Cl)c1Cl (centres unmarked) [I-1578]
20 | 4.80[a] |  |  | COc1ccc(CNc2nsc(C(=O)N(Cc3ccc(C)cc3C)C3CC3)c2Cl)cc1 [I-892]
21 |  | 5.07 | 4.94 | CC1(C)C2CCC1(C)C(NC(=O)c1snc(Cl)c1Cl)C2 (centres unmarked) [E-II-022]
22 | 1.37[a] |  |  | Nc1nsc(C(=O)NCC2CCCCC2)c1N [I-1539]
23 | 3.46[a] |  |  | COc1ccc(CNc2nsc(C(=O)NCc3cccc(OC)c3F)c2Cl)cc1 [I-236]
24 | 4.98[a] |  |  | COc1ccc(CNc2nsc(C(=O)N(Cc3cc(Cl)ccc3Br)C3CC3)c2Cl)cc1 [I-989]

Row | LogP | LogP [a] | LogP [b] | SMILES
25 | 5.00[a] |  |  | COc1ccc(CNc2nsc(C(=O)NC3CC(C)CC(C)(C)C3)c2Cl)cc1 (centres unmarked) [I-1206]
26 |  | 1.30^[a] |  | CS(C)=Nc1nsc(C(=O)NCc2ccc(F)cc2F)c1F [II-057]
27 | 2.21[a] |  |  | C[C@@H]1CCCC[C@H]1NC(=O)c1snc(N)c1F (relative stereo) [I-1357]
28 | 3.56[a] |  |  | CC(C)(C)OC(=O)Nc1nsc(C(=O)NCC2CCCCC2Cl)c1Cl (centres unmarked) [I-1581]
29 | 2.82[a] |  |  | COc1ccc(CNc2nsc(C(=O)NC(C)c3nccs3)c2Cl)cc1 (centres unmarked) [I-1317]
30 | 2.23[a] |  |  | COc1cc(F)ccc1CNC(=O)c1snc(NC(=O)C(F)F)c1Cl [I-820]
31 | 2.82[a] |  |  | Nc1nsc(C(=O)NC2(C3CCCCC3)CC2)c1Cl [I-143]
32 | 3.83[a] |  |  | COc1ccc(CNc2nsc(C(=O)Nc3ccc(F)cc3F)c2Cl)cc1 [I-856]
33 | 3.71[a] |  |  | CC(C)N(Cc1ccc(Cl)cc1Cl)C(=O)c1snc(N)c1Cl [I-213]
34 | 2.51[a] |  |  | Nc1nsc(C(=O)NCC2CCCCC2)c1Br [I-539]
35 |  | 3.83^[a] |  | O=C(NCC1CCCO1)c1snc(N=C(c2ccccc2)c2ccccc2)c1Cl (centres unmarked) [II-005]
36 | 2.68[a] |  |  | Nc1nsc(C(=O)NCC2CCC(C(F)(F)F)CC2)c1Br (centres unmarked) [I-840]
37 | 5.10[b] |  |  | COc1ccc(CNc2nsc(C(=O)NC(Cc3ccccc3)C3CCCCC3)c2Cl)cc1 (centres unmarked) [I-1079]
38 | 2.18[a] |  |  | Cc1c(N)nsc1C(=O)NCc1ccc(C(F)(F)F)cc1F [I-104]
39 |  | 2.63^[a] |  | Cc1ccc(S(C)=Nc2nsc(C(=O)NCc3c(F)cc(F)cc3F)c2F)cc1 (centres unmarked) [II-080]
40 | 3.94[a] |  |  | CC(C)(C)c1ccc2c(c1)CC(NC(=O)c1snc(N)c1Cl)CC2 (centres unmarked) [I-1534]
41 | 1.30[a] |  |  | Nc1nsc(C(=O)NCC2CC2)c1Cl [I-337]
42 |  | 2.72 | 2.69 | CC(NC(=O)c1snc(Cl)c1Cl)C1CCCO1 (centres unmarked) [E-II-032]
43 | 5.97[a] |  |  | CCC(C)C(C)N(C(=O)c1cc(N(Cc2ccccc2)Cc2ccccc2)ns1)C1CC1 (centres unmarked) [I-938]
44 | 3.37[a] |  |  | CCc1ccccc1C(C)N(C(=O)c1snc(N)c1Cl)C1CC1 (centres unmarked) [I-887]
45 | 3.02[a] |  |  | Cc1cccc(C)c1CN(C(=O)c1snc(N)c1Cl)C1CC1 [I-154]
46 |  | 0.66^[a] |  | CN1C2CCC1CC(NC(=O)c1snc(Cl)c1Cl)C2 (centres unmarked) [E-II-018]
47 | 3.50[a] |  |  | CC(c1ccc(Cl)cc1Cl)N(C(=O)c1snc(N)c1Cl)C1CC1 (centres unmarked) [I-953]
48 | 2.64[a] |  |  | CC(=O)N(C(C)=O)c1nsc(C(=O)NCc2ccccc2F)c1Cl [I-101]

Row | LogP | LogP [a] | LogP [b] | SMILES
49 | 1.52[a] |  |  | Cc1c(N)nsc1C(=O)NCc1ccc(F)cc1 [I-050]
50 | 6.20[a] |  |  | C[C@H](NC(=O)c1snc(N(Cc2ccccc2)Cc2ccccc2)c1C1CC1)C1CCCCC1 [I-264]
51 |  | 1.72^[a] |  | O=C(NCC1CCCCC1)c1snc(N=S2CCCC2)c1F [II-055]
52 | 1.93[a] |  |  | Nc1nsc(C(=O)NCc2ccc(F)c(F)c2)c1Cl [I-125]
53 |  | 4.87 | 4.75 | O=C(NC(Cc1ccccc1)C1CC=CCC1)c1snc(Cl)c1Cl (centres unmarked) [E-II-034]
54 | 1.98[a] |  |  | Nc1nsc(C(=O)NCCc2ccccc2)c1Cl [I-851]
55 |  | 4.89^[a] |  | O=C(NCc1ccccc1Cl)c1snc(N=C(c2ccccc2)c2ccccc2)c1Cl [II-004]
56 | 1.91[a] |  |  | Nc1nsc(C(=O)NCc2cccc(F)c2F)c1Cl [I-120]
57 | 2.78[a] |  |  | Nc1nsc(C(=O)N(C2CCCCC2)C2CC2)c1Cl [I-980]
58 | 4.69[a] |  |  | COc1ccc(CNc2nsc(C(=O)NC3(C4CCCCC4)CC3)c2Cl)cc1 [I-113]
59 | 1.82[a] |  |  | COc1ccc(CNc2nsc(C(=O)NC(Cn3ccnc3)C(C)(C)C)c2Cl)cc1 (centres unmarked) [I-1324]
60 | 4.08[a] |  |  | CCOc1ccccc1CNC(=O)c1snc(NCc2ccc(OC)cc2)c1Cl [I-1247]
61 | 1.82[a] |  |  | Nc1cc(C(=O)NCc2ccc(Cl)cc2F)sn1 [I-179]
62 | 3.74[a] |  |  | Nc1nsc(C(=O)N(Cc2ccc(Cl)cc2Cl)CC2CC2)c1Cl [I-212]
63 | 1.88[a] |  |  | Nc1nsc(C(=O)NCc2ccccc2Br)c1Cl [I-1553]
64 | 2.80[a] |  |  | CS(=O)(=O)N(c1nsc(C(=O)NCc2ccccc2F)c1Cl)S(C)(=O)=O [I-185]
65 |  | 3.51^[a] |  | Cc1ccc(S(C)=Nc2nsc(C(=O)NCC3CCCCC3)c2Cl)cc1 (centres unmarked) [II-050]
66 | 1.70[a] |  |  | CC(=O)Nc1nsc(C(=O)NCc2ccccc2F)c1Cl [I-100]
67 | 4.15[a] |  |  | COc1ccc(CNc2nsc(C(=O)N(Cc3cc(F)ccc3F)C3CC3)c2Cl)cc1 [I-987]
68 | 6.35[a] |  |  | Cc1ccc(NC(=O)c2snc(N(Cc3ccccc3)Cc3ccccc3)c2Br)cc1Cl [I-951]
69 | 0.90[a] |  |  | Nc1nsc(C(=O)NCC2CCOCC2)c1Cl [I-012]
70 | 2.46[a] |  |  | Nc1nsc(C(=O)NCCc2ccc(Cl)cc2)c1Cl [I-971]
71 | 3.85[a] |  |  | COc1ccc(CNc2nsc(C(=O)N(c3ccc(F)cc3)C3CC3)c2Cl)cc1 [I-922]
72 | 4.11[a] |  |  | C[C@H](NC(=O)c1snc(NCC(F)(F)F)c1Cl)C1CCCCC1 [I-427]

Row | LogP | LogP [a] | LogP [b] | SMILES
73 |  | 5.39^[a] |  | CC(C)(NC(=O)c1snc(Cl)c1Cl)C1CCCCC1 [E-II-013]
74 | 2.82[a] |  |  | COc1ccc(CNc2nsc(C(=O)NCc3cn(C(C)C)nc3C)c2Cl)cc1 [I-1257]
75 | 1.64[a] |  |  | COc1c(N)nsc1C(=O)NCc1ccccc1F [I-733]
76 |  | 2.17 | 2.16 | CC(C)OC(=O)c1snc(N)c1Cl [E-VII-005]
77 | 2.62[a] |  |  | Nc1nsc(C(=O)NCc2ccc(Cl)cc2Cl)c1Cl [I-018]
78 | 3.21[a] |  |  | COc1ccc(CNc2nsc(C(=O)NCc3cnn(CC(C)C)c3C)c2Cl)cc1 [I-1262]
79 | 3.63[a] |  |  | COc1ccc(CNc2nsc(C(=O)NCc3ccc(OC(F)F)cc3)c2Cl)cc1 [I-1229]
80 | 1.88[a] |  |  | Nc1nsc(C(=O)NCc2cc(F)ccc2F)c1Cl [I-015]
81 | 1.43[a] |  |  | N#Cc1ccccc1CNC(=O)c1snc(N)c1Cl [I-1288]
82 | 2.51[a] |  |  | CC(=O)Nc1nsc(C(=O)N[C@@H](C)C2CCCCC2)c1Cl [I-097]
83 |  | 1.39^[a] |  | CS(C)=Nc1nsc(C(=O)NCc2ccc(F)c(F)c2F)c1F [II-076]
84 | 4.02[a] |  |  | C=CCNc1nsc(C(=O)N[C@@H](C)C2CCCCC2)c1Cl [I-066]
85 |  | 2.49^[a] |  | O=C(NCC1CCCCC1)c1snc(N=S2CCOCC2)c1Cl [II-090]
86 | 4.84[a] |  |  | C[C@H](NC(=S)c1snc(NC2CC2)c1Cl)C1CCCCC1 [I-428]
87 | 3.53[a] |  |  | CC(C)(C)OC(=O)Nc1nsc(C(=O)NCC2CCCCC2Cl)c1Cl (centres unmarked) [I-1571]
88 | 4.02[a] |  |  | COc1ccc(CNc2nsc(C(=O)N(c3ccc(F)cc3F)C3CC3)c2Cl)cc1 [I-921]
89 |  | 3.72^[a] |  | COc1ccc(CNc2nsc(C(=O)N3CCCc4cc(OC)ccc43)c2Cl)cc1 [II-063]
90 | 1.31[a] |  |  | COc1c(N)nsc1C(=O)NCC1CCCCO1 (centres unmarked) [I-734]
91 | 4.74[a] |  |  | CCc1ccccc1CN(C(=O)c1snc(NCc2ccc(OC)cc2)c1Cl)C1CC1 [I-890]
92 | 5.59[a] |  |  | O=C(c1cc(N(Cc2ccccc2)Cc2ccccc2)ns1)N(Cc1cc(Cl)ccc1F)C1CC1 [I-992]
93 | 1.14[a] |  |  | Cc1nc(CNC(=O)c2snc(N)c2Cl)cs1 [I-1362]

Row | SMILES | LogP | LogP [a] | LogP [b]
94 | CS(Cc1ccccc1Cl)=Nc1nsc(C(=O)NCC2CCCCC2)c1Cl (centres unmarked) [II-085] |  | 3.61^[a] | 
95 | Cc1ccc(S(C)=Nc2nsc(C(=O)NCc3ccc(F)cc3F)c2F)cc1 (centres unmarked) [II-058] |  | 2.74^[a] | 
96 | O=C(NC1CCCC2CCCCC21)c1snc(N=CN2CCCC2)c1Cl (centres unmarked) [II-037] |  | 3.83^[a] | 
